{"source": "patent US20260109727A1", "about": "“RNA CONSTRUCTS AND USES THEREOF” (BioNTech SE, priority 2022, published 2026)", "tested_on": "BALB/c mice", "experiment": "Plasma EPO in mice IV injected with 3 μg TransIT-complexed EPO mRNA (ELISA)", "type": "in vivo", "description": "To confirm in vitro data, female BALB/c mice from Jackson Laboratory (Bar Harbor, ME, USA) at the age of eight to ten weeks were used for in vivo experiment in accordance with federal policies on animal research (Ethics approval number: G18-12-027). Mice (n=3/group) were injected intravenously (i.v.) with 3 μg TransIT-complexed (Mirus Bio) EPO mRNAs in a final volume of 200 μL Dulbecco's modified Eagle medium (DMEM). Mice used as controls were injected with TransIT-reagent diluted in DMEM but without RNA. Mice were injected with EPO mRNA complexed with TransIT-reagent and EPO levels in plasma were measured using ELISA (FIG. 8A). Hematocrit was measured from 18 μl of blood that was collected at the indicated times using centrifugation in Drummond microcaps glass capillary tubes (20 μl volume, Merck, Germany) as described (20) (FIG. 8B). After determination of the hematocrit, capillary tubes were snapped open, and the plasma was collected to measure EPO levels and analyzed for mouse Erythropoietin DuoSet ELISA kit (R&D Systems) according to the manufacturer's instructions. […] EPO RNA containing m1Ψ translated two-fold more than U-containing mRNA at each time points (FIG. 8A). Both compound I′-1 and compound I′-6 are suitable for translation of the encoded protein and each cap analog can be used for synthesizing of non-replicating functional mRNAs (FIG. 8A, 8B).\nIn each in vivo experiment in order to measure the translational efficiency and to determine the functionality of EPO mRNA capped with I′-1, I′-2, I′-3, I′-5, I′-6, I′-9, I′-12, I′-13, I′-16, CC114, and CC413 in vivo, female BALB/c mice from Jackson Laboratory (Bar Harbor, ME, USA) at the age of eight to ten weeks were used for in accordance with federal policies on animal research (Ethics approval number: G19-12-074). In each case, mice (n=3/group) were injected intravenously (i.v.) with 3 μg TransIT-complexed (Mirus Bio) EPO mRNAs in a final volume of 200 μL Dulbecco's modified Eagle medium (DMEM). Mice used as controls were injected with TransIT-reagent diluted in DMEM but without RNA. To measure hematocrits and EPO levels in the individual mice that were injected with EPO mRNA capped with I′-6, I′-1, CC114, and CC413 and complexed with TransIT-reagent, 18 μL of blood was collected at the indicated times (FIG. 8B) and centrifuged in Drummond microcaps glass capillary tubes (20 μl volume, Merck, Germany) as described (19). After determination of the hematocrit, capillary tubes were snapped open, and the plasma was collected to measure EPO levels and analyzed for mouse Erythropoietin DuoSet ELISA kit (R&D Systems) according to the manufacturer's instructions. […] EPO RNA containing m1Ψ modifications translated 2-3-fold, 5-fold, and 10-fold more than U-containing mRNAs at 6-24, 48 and 72 hours after injections, respectively. (FIG. 8A). […] To address translation of I′-6-capped mRNA in human primary hepatocytes, EPO level was measured from supernatants transfected using 0.1 μg/well TransIT-formulated I′-6- or CC114-capped uRNA (FIG. 13).\nTo this end, we generated U-containing as well as m1Ψ-modified EPO RNA capped with cap analogs which belong to either the non-ARCA (I′-13) or ARCA (I′-6) classes. Moreover, the latter ones contain 2′-OMe (I′-5) or 3′-OMe (I′-6) at the ribose of the m7G moiety. Three μg of TransIT-complexed EPO mRNA capped with nucleoside modification-containing NeoCaps I′-13, I′-5 and I′-6 cap analogs were injected into mice intravenously. After that EPO level of plasma collected from mice was measured at 6, 24 and 48 hours after administration to compare the translational activity of mRNA capped with NeoCaps with U-containing or m1Ψ-modified mRNA capped with non-modified ARCA 3′OMe I′-1.\nPlasma EPO level of mice injected with 3 μg of each TransIT-complexed mRNA was determined using murine EPO-specific ELISA at 6, 24, 48 and 72 hours after intravenous administration. […]", "data": [{"smiles": "COC1C(OP(=O)(O)OC[C@H]2O[C@@H](c3cn(C)c(=O)[nH]c3=O)C(O)C2O)[C@@H](COP(=O)(O)OP(=O)([O-])OP(=O)(O)OC[C@H]2O[C@@H](n3c[n+](C)c4c(O)nc(N)nc43)C(O)C2OC)O[C@H]1n1cnc2c(N)ncnc21", "note": "(stereo partly drawn) [I′-6, m^7G(^3′-OMe)pppA(2′-OMe)pm^1Ψ]", "values": [{"measurement": "24-hour EPO values compared with 6-hour values", "setting": "after IV injection", "result": "higher than the 6-hour values"}, {"measurement": "translation (plasma EPO) relative to CC413", "setting": "later time points", "result": "2- to 3 fold"}, {"measurement": "translation (EPO level) relative to I′-1", "setting": "m1Ψ-modified mRNA capped with I′-6 vs U-containing mRNA capped with I′-1, each time point", "result": "2-3 fold"}, {"measurement": "translation relative to unmodified I′-1", "setting": "m1Ψ-modified mRNA, 6-24 hours after administration", "result": "2-3 fold"}, {"measurement": "translation relative to unmodified I′-1", "setting": "m1Ψ-modified mRNA, 48-72 hours after administration", "result": "4-5 fold"}, {"measurement": "translation / plasma EPO level relative to CC413", "setting": "m1Ψ-modified mRNA, 48 and 72 h after injection, respectively", "result": "1.5-3 fold"}, {"measurement": "performance compared with cap analogs with other modification", "setting": "m1Ψ-modified mRNA, same capping efficiency", "result": "surpasses the performance of other cap analogs"}, {"measurement": "translation of ARCA analogs compared to non-ARCA caps CC114 and I′-13", "setting": "regardless of the RNA modification", "result": "significantly better"}, {"measurement": "plasma EPO compared with reference samples (I′-1, CC114, CC413)", "setting": "regardless of the cap initiators", "result": "outperformed each reference sample"}]}]}
